Test results published in patent publication US7070814B2, “Bioavailability / bioefficacy enhancing activity of Cuminum cyminum and extracts and fractions thereof” (Council of Scientific and Industrial Research, priority 2002, dated 2006).

Experiment: Bioavailability enhancement: drug, nutraceutical or herbal product given alone or with bioenhancer (BE) to fasted rats, blood (plasma) levels 0-24 hrs by HPLC
Experimental: • 1. Bioenhancers (BEs) from Cuminum cyminum means either the aqueous, or 50% alcoholic extract or fractions No. 1 to 5. • 2. Piperine as Bioenhancer (BE) from Piper species means the molecule with characteristics as described in Example 2 of this invention. • 3.
• (i) Bioenhancer (BE) from Cuminum cyminum • Extract: 16 mg/kg body weight (Rats) • Fraction No. 1: 02–5 mg/kg body weight (rats) • Fraction No.2: 13-mg/kg body weight (Rats) • Fraction No. 3: 8 mg/kg body weight (Rats) • Fraction No. 4: 5 mg/kg body weight (Rats) • Fraction No. 5: 2.5 to 5 mg/kg body weight (Rats) • (ii) Piperine: 8 mg/kg body weight (Rats) As an example of an experiment in Rat (fasted): • Drug: Rifampicin, 40 mg/kg • BE (Cuminum cyminum): Doses as in Example No. 5 above. • BE (Cuminum cyminum)+Piperine: Doses as in Example No. 5 above.
Experimental procedure: Drug alone/or in combination with BE was administered to rats as per the following design: • Group 1: Control • Group 2: Rifampicin alone • Group 3: BE alone • Group 4: Rifampicin+BE (Cuminum cyminum) • Group 5: Rifampicin+BE (C. cyminum+piperine)
Blood from control/treated animals at predetermined intervals (0–24 hrs) (Total 14 timings). Rifampicin was extracted from the blood (plasma) using dichloromethane. The concentration of rifampicin in the samples was determined using HPLC (Model: Shimadzu 1080 BP); PDA detector; Mobile phase: phosphate buffer: acetonitile (40:60); Flow rate 1.0 ml/min. Column RP 18.
Control and BE only groups were employed to study the interference of plasma component and the bioenhancer used.
List of drugs, nutraceuticals, herbal formulations cited below as some of the example for the purpose of present invention.

## O=c1[nH]cc(F)c(=O)[nH]1 [5-Fluorouracil]
rat, in vivo
  % Enhancement in bioavailability, Piperine + Active molecule: 435%

## Nc1nc2c(ncn2COCCO)c(=O)[nH]1 [Acyclovir]
rat, in vivo
  % Enhancement in bioavailability, Piperine + Active molecule: 98%

## Cc1nnc2n1-c1ccc(Cl)cc1C(c1ccccc1)=NC2 [Alprazolam]
Drug + BE from Cuminum cyminum (extract 16 mg/kg or fraction, rats) vs drug alone
  % Enhancement in bioavailability, BE from Cuminum cyminum: 60%
Drug + piperine (8 mg/kg, rats) vs drug alone
  % Enhancement in bioavailability, Piperine as BE: 98%
Drug + piperine + active molecule (rats) vs drug alone
  % Enhancement in bioavailability, Piperine + Active molecule: 104%

## NCC[C@H](O)C(=O)N[C@@H]1C[C@H](N)[C@@H](O[C@H]2O[C@H](CN)[C@@H](O)[C@H](O)[C@H]2O)[C@H](O)[C@H]1O[C@H]1O[C@H](CO)[C@@H](O)[C@H](N)[C@H]1O [Amikacin]
rat, in vivo
  % Enhancement in bioavailability, Piperine + Active molecule: Nil

## CCOC(=O)C1=C(COCCN)NC(C)=C(C(=O)OC)C1c1ccccc1Cl (stereo not shown) [Amlodipine]
rat, in vivo
  % Enhancement in bioavailability, Piperine + Active molecule: 103%

## CC1(C)S[C@@H]2[C@H](NC(=O)[C@H](N)c3ccc(O)cc3)C(=O)N2[C@H]1C(=O)O [Amoxycillin]
rat, in vivo
  % Enhancement in bioavailability, Piperine + Active molecule: 98%

## CC[C@H]1OC(=O)[C@H](C)[C@@H](O[C@H]2C[C@@](C)(OC)[C@@H](O)[C@H](C)O2)[C@H](C)[C@@H](O[C@@H]2O[C@H](C)C[C@H](N(C)C)[C@H]2O)[C@](C)(O)C[C@@H](C)CN(C)[C@H](C)[C@@H](O)[C@]1(C)O [Azithromycin]
rat, in vivo
  % Enhancement in bioavailability, Piperine + Active molecule: 97%

## CN(Cc1cc(Br)cc(Br)c1N)C1CCCCC1 [Bromhexine]
rat, in vivo
  % Enhancement in bioavailability, Piperine + Active molecule: 90%

## CC1=C(C(=O)O)N2C(=O)[C@@H](NC(=O)[C@H](N)c3ccc(O)cc3)[C@H]2SC1 [Cefadroxil]
rat, in vivo
  % Enhancement in bioavailability, Piperine + BE from Cuminum cyminum: 79%

## CO/N=C(\C(=O)N[C@@H]1C(=O)N2C(C(=O)O)=C(CSc3nc(=O)c(O)nn3C)CS[C@H]12)c1csc(N)n1 [Cefatrioxone]
rat, in vivo
  % Enhancement in bioavailability, Piperine + BE from Cuminum cyminum: Nil

## C=CC1=C(C(=O)O)N2C(=O)[C@@H](NC(=O)/C(=N\OCC(=O)O)c3csc(N)n3)[C@H]2SC1 [Cefixime]
rat, in vivo
  % Enhancement in bioavailability, Piperine + BE from Cuminum cyminum: Nil

## CN/C(=N/CCSCc1nc[nH]c1C)NC#N [Cimetidine]
rat, in vivo
  % Enhancement in bioavailability, Piperine + BE from Cuminum cyminum: 105%

## Cc1onc(-c2ccccc2Cl)c1C(=O)N[C@@H]1C(=O)N2[C@@H]1SC(C)(C)[C@@H]2C(=O)O [Cloxacillin]
rat, in vivo
  % Enhancement in bioavailability, Piperine + Active molecule: 95%

## N[C@@H]1CON=C1O [Cycloserine]
rat, in vivo
  % Enhancement in bioavailability, Piperine + Active molecule: 90%

## Nc1ccc(S(=O)(=O)c2ccc(N)cc2)cc1 [Dapsone]
rat, in vivo
  % Enhancement in bioavailability, Piperine + Active molecule: 75%

## O=C(O)Cc1ccccc1Nc1c(Cl)cccc1Cl [Diclofenac]
rat, in vivo
  % Enhancement in bioavailability, Piperine + Active molecule: 108%

## COc1cccc2c1C(=O)c1c(O)c3c(c(O)c1C2=O)C[C@@](O)(C(=O)CO)C[C@@H]3O[C@H]1C[C@H](N)[C@H](O)[C@H](C)O1 [Doxorubicin]
rat, in vivo
  % Enhancement in bioavailability, Piperine + Active molecule: 103%

## CC[C@H]1OC(=O)[C@H](C)[C@@H](O[C@H]2C[C@@](C)(OC)[C@@H](O)[C@H](C)O2)[C@H](C)[C@@H](O[C@@H]2O[C@H](C)C[C@H](N(C)C)[C@H]2O)[C@](C)(O)C[C@@H](C)C(=O)[C@H](C)[C@@H](O)[C@]1(C)O [Erythromycin]
rat, in vivo
  % Enhancement in bioavailability, Piperine + Active molecule: 95%

## CC[C@@H](CO)NCCN[C@@H](CC)CO [Ethambutol]
rat, in vivo
  % Enhancement in bioavailability, Piperine + Active molecule: Nil

## CCc1cc(C(N)=S)ccn1 [Ethionamide]
rat, in vivo
  % Enhancement in bioavailability, Piperine + Active molecule: 65%

## O=C(CCCN1CCC(O)(c2ccc(Cl)cc2)CC1)c1ccc(F)cc1 [Haloperidol]
rat, in vivo
  % Enhancement in bioavailability, Piperine + Active molecule: Nil

## NNC(=O)c1ccncc1 [Isoniazid]
rat, in vivo
  % Enhancement in bioavailability, Piperine + Active molecule: Negligible

## CC(=O)N1CCN(c2ccc(OCC3COC(Cn4ccnc4)(c4ccc(Cl)cc4Cl)O3)cc2)CC1 (stereo not shown) [Ketoconazole]
rat, in vivo
  % Enhancement in bioavailability, Piperine + Active molecule: 156%

## NCCCC[C@H](N[C@@H](CCc1ccccc1)C(=O)O)C(=O)N1CCC[C@H]1C(=O)O [Lisinopril]
rat, in vivo
  % Enhancement in bioavailability, Piperine + Active molecule: 98%

## CN(Cc1cnc2nc(N)nc(N)c2n1)c1ccc(C(=O)N[C@@H](CCC(=O)O)C(=O)O)cc1 [Methotrexate]
rat, in vivo
  % Enhancement in bioavailability, Piperine + Active molecule: 30%

## COc1c(C)c2c(c(O)c1C/C=C(\C)CCC(=O)OCCN1CCOCC1)C(=O)OC2 [Mycophenolate Mofeit, Mycophenolate mofetil]
rat, in vivo
  % Enhancement in bioavailability, Piperine + Active molecule: Nil

## CS(=O)(=O)Nc1ccc([N+](=O)[O-])cc1Oc1ccccc1 [Nimesulide]
rat, in vivo
  % Enhancement in bioavailability, Piperine + Active molecule: 150%

## CCn1cc(C(=O)O)c(=O)c2cc(F)c(N3CCNCC3)cc21 [Norfloxacin]
rat, in vivo
  % Enhancement in bioavailability, Piperine + Active molecule: Negligible

## CC1COc2c(N3CCN(C)CC3)c(F)cc3c(=O)c(C(=O)O)cn1c23 (stereo not shown) [O-floxacin, Ofloxacin]
rat, in vivo
  % Enhancement in bioavailability, Piperine + Active molecule: 73%

## COc1ccc2[nH]c([S+]([O-])Cc3ncc(C)c(OC)c3C)nc2c1 (stereo not shown) [Omeprazole]
rat, in vivo
  % Enhancement in bioavailability, Piperine + BE from Cuminum cyminum: Nil

## CN1C(C(=O)Nc2ccccn2)=C(O)c2ccccc2S1(=O)=O [Piroxicam]
rat, in vivo
  % Enhancement in bioavailability, Piperine + Active molecule: 107%

## CC(C)NCC(O)COc1cccc2ccccc12 (stereo not shown) [Propranolol]
rat, in vivo
  % Enhancement in bioavailability, Piperine + Active molecule: 210%

## NC(=O)c1cnccn1 [Pyrazinamide]
rat, in vivo
  % Enhancement in bioavailability, Piperine + Active molecule: Nil

## CNC(=C[N+](=O)[O-])NCCSCc1ccc(CN(C)C)o1 [Ranitidine]
rat, in vivo
  % Enhancement in bioavailability, Piperine + BE from Cuminum cyminum: 89%

## CO[C@H]1/C=C/O[C@@]2(C)Oc3c(C)c(O)c4c(O)c(c(/C=N/N5CCN(C)CC5)c(O)c4c3C2=O)NC(=O)/C(C)=C\C=C\[C@H](C)[C@H](O)[C@@H](C)[C@@H](O)[C@@H](C)[C@H](OC(C)=O)[C@@H]1C [Rifampicin]
rat, in vivo
  % Enhancement in bioavailability, Piperine + Active molecule: 366%

## CS(=O)(=O)c1ccc(C2=C(c3ccccc3)C(=O)OC2)cc1 [Rofecoxib]
rat, in vivo
  % Enhancement in bioavailability, Piperine + Active molecule: Negligible

## CC[C@H]1OC(=O)[C@H](C)[C@@H](O[C@H]2C[C@@](C)(OC)[C@@H](O)[C@H](C)O2)[C@H](C)[C@@H](O[C@@H]2O[C@H](C)C[C@H](N(C)C)[C@H]2O)[C@](C)(O)C[C@@H](C)/C(=N\OCOCCOC)[C@H](C)[C@@H](O)[C@]1(C)O [Roxythromycin]
rat, in vivo
  % Enhancement in bioavailability, Piperine + Active molecule: 103%

## CC(C)(C)NCC(O)c1ccc(O)c(CO)c1 (stereo not shown) [Salbutamol]
rat, in vivo
  % Enhancement in bioavailability, Piperine + Active molecule: 85%

## C=CC[C@@H]1/C=C(\C)C[C@H](C)C[C@H](OC)[C@H]2O[C@@](O)(C(=O)C(=O)N3CCCC[C@H]3C(=O)O[C@H](/C(C)=C/[C@@H]3CC[C@@H](O)[C@H](OC)C3)[C@H](C)[C@@H](O)CC1=O)[C@H](C)C[C@@H]2OC [Tacrolimus]
rat, in vivo
  % Enhancement in bioavailability, Piperine + Active molecule: 117%

## Cn1c(=O)c2[nH]cnc2n(C)c1=O [Theophylline]
rat, in vivo
  % Enhancement in bioavailability, Piperine + Active molecule: 75%

## Cc1cn([C@H]2C[C@H](N=[N+]=[N-])[C@@H](CO)O2)c(=O)[nH]c1=O [Zidovudine]
rat, in vivo
  % Enhancement in bioavailability, Piperine + Active molecule: 415%
